Peptide text beside a SMILES is read from it.
Target: T1, porcine aminopeptidase M (EC 3.4.11.2) (Sus scrofa, UniProt P15145)
T1 construct: purchased Sigma Aldrich; host or cells: pig kidney (tissue-derived)
T1 sequence (P15145 1-963): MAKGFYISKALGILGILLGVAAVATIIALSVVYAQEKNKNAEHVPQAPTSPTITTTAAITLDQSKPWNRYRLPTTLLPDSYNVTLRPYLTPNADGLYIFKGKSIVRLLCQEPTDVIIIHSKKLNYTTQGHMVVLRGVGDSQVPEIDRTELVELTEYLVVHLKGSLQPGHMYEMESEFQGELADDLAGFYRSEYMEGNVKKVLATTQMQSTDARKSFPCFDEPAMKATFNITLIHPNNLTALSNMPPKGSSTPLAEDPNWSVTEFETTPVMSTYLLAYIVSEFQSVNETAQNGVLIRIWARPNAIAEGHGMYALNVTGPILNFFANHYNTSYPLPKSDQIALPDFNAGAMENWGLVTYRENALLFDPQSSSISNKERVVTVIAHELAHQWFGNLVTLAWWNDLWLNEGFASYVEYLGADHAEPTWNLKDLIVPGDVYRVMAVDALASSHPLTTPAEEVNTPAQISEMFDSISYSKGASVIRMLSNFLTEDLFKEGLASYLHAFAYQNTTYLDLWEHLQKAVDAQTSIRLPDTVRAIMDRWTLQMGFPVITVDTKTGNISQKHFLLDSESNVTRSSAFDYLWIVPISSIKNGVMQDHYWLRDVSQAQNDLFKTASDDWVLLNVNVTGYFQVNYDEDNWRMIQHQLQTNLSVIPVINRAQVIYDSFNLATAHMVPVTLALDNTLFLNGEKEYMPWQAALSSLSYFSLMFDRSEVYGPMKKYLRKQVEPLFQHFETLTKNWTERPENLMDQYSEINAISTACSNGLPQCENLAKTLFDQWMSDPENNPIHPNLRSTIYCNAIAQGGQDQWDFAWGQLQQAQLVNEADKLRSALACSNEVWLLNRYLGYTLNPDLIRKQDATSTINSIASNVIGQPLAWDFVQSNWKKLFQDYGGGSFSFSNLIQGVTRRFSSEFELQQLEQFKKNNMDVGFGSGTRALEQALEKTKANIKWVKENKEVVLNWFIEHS
Assay: Aminopeptidase M inhibition, spectrophotometric, L-leucine-p-nitroanilide substrate
Format: biochemical
Conditions: porcine AMP from pig kidney, 1 mU mL^-1; 0.1 M borate buffer pH 8.0; 30 min pre-incubation at 30 °C; inhibitor 0.1-10 μM; L-leucine-p-nitroanilide 1.2 mM; absorbance 405 nm; triplicate, average of three independent experiments
Method: Inhibition assay spectrophotometrically performed using porcine aminopeptidase M (EC 3.4.11.2, from pig kidney—Sigma Aldrich®). After 30 min pre-incubation at 30 °C, 5 μL of the commercial aminopeptidase M enzyme (1 mU mL^−1) added to microginin solutions (concentrations of 0.1, 0.25, 0.5, 1, 5 and 10 μM). […] The final volume at the 96-well plates was 75 μL (medium composed of 0.1 M borate buffer, Ph 8.0). After 30 min pre-incubation, 30 μL of the L-leucine-p-nitroanilide substrate at the concentration of 1.2 mM were added for the microginins AMP inhibition assays. The kinetics of inhibition of AMP were determined and the reaction interrupted with the addition of 25 μL of 30% acetic acid solution.
To obtain the factor used for the calculation of specific activity, a standard curve was performed with the product of the reaction (p-nitroanilide 1 mM), obtaining the slope of the curve. Absorbance reading was performed on the Spectra Max M2-Molecular Devices® 96-well plate reader with SoftMax Pro® software version 5.3, and the p-nitroanilide product concentrations were determined by the millimolar extinction coefficient at 405 nm as 9.96 (Sigma-Aldrich). After reading the samples, the residual activity calculations performed in mU mL^−1, percentage of activity and inhibition. […]

Row | Compound | IC50
1 | CCCCCCC[C@@H](N)[C@H](O)C(=O)N[C@H](C(=O)N[C@@H](CC(C)C)C(=O)N[C@@H](CCc1ccc(O)cc1)C(=O)N[C@@H](Cc1ccc(O)cc1)C(=O)O)C(C)C [MG756, Ahda-Val-Leu-HTy-Tyr] (HELM PEPTIDE1{[CCCCCCC[C@@H](N)[C@H](O)C(=O)[*:2]].V.L.[O=C([C@H](CCc1ccc(O)cc1)N[*:1])[*:2]].Y}$$$$V2.0) | 3260 ± 500 nM
2 | CCCCCCC[C@@H](NC)[C@H](O)C(=O)N[C@H](C(=O)N[C@@H](CC(C)C)C(=O)N[C@@H](CCc1ccc(O)cc1)C(=O)N[C@@H](Cc1ccc(O)cc1)C(=O)O)C(C)C [MG770, N-Me-Ahda-Val-Leu-HTy-Tyr] (HELM PEPTIDE1{[CCCCCCC[C@@H](NC)[C@H](O)C(=O)[*:2]].V.L.[O=C([C@H](CCc1ccc(O)cc1)N[*:1])[*:2]].Y}$$$$V2.0) | 1200 ± 100 nM
